Experimental findings from US10189854B2, “Substituted pyrimidine compounds” (Grünenthal GmbH, priority 2014, dated 2019) are described below.

The target in the assay is human PDE4B1 (Homo sapiens (Human), UniProt Q07343). Put plainly: cAMP HTRF assay to determine the activity of hPDE4B1. In kind it is biochemical. The settings on record: IC50 inhibition of PDE4B; human recombinant PDE4B1, cAMP HTRF assay. An outline of the steps: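 Recombinant human PDE4B1 expressed in Sf9 cells (4.8 U) was incubated with 40 nM cAMP for 30 min at room temperature in Tris buffer, pH 7.8, with MgCl2, DTT and Tween 20. HTRF detection of remaining cAMP followed, with 1 mM IBMX stop, read 60 min later as the 665/620 nm ratio. Results are % inhibition versus control.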
Chain of human PDE4B1 (Q07343 whole entry): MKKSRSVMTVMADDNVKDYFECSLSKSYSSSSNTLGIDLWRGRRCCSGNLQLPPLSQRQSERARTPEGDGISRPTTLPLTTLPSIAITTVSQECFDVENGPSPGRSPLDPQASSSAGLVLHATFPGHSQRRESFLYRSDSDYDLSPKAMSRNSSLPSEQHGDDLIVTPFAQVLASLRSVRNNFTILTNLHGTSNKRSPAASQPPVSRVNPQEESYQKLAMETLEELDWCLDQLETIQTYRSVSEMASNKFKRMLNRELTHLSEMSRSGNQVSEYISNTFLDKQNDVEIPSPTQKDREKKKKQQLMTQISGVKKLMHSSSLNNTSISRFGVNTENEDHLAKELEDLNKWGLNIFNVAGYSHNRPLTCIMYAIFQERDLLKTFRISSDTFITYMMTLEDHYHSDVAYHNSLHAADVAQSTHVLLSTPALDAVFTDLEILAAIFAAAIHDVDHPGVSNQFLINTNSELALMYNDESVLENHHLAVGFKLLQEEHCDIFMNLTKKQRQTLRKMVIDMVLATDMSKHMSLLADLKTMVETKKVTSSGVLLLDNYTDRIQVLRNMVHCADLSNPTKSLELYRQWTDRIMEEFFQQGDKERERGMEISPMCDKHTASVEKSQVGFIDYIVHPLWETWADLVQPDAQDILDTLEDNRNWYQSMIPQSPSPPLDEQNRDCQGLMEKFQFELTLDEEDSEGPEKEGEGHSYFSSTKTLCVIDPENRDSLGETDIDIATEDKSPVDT
On to `NC(=O)c1ccc(-c2cnc(N3CC4(CC4)c4ccc(C(=O)N5CCNCC5)cc43)nc2)c(F)c1` [Compound 119, 3-Fluoro-4-[2-[6-(piperazine-1-carbonyl)-spiro[1,2-dihydro-indole-3,1′-cyclopropane]-1-yl]-pyrimidin-5-yl]-benzamide], for which the IC50 was < 0.1 µM.
The result for `CN[C@@H]1CCN(C(=O)c2ccc3c(c2)N(c2ncc(-c4ccccc4F)cn2)CC32CC2)C1` [Compound 121, [1-[5-(2-Fluorophenyl)-pyrimidin-2-yl]-spiro[1,2-dihydro-indole-3,1′-cyclopropane]-6-yl]-[(3R)-3-methylamino-pyrrolidin-1-yl]-methanone] reads < 0.1 µM; that for `COc1ccc(C(N)=O)c(-c2cnc(N3CC4(CC4)c4ccc(C(=O)N5CCNCC5)cc43)nc2)c1` [Compound 122, 4-Methoxy-2-[2-[6-(piperazine-1-carbonyl)-spiro[1,2-dihydro-indole-3,1′-cyclopropane]-1-yl]-pyrimidin-5-yl]-benzamide], 1 to 10 µM.
The same measure for `N#Cc1ccc(F)c(-c2cnc(N3CC4(CC4)c4ccc(C(=O)N5CC[C@@H](N)C5)cc43)nc2)c1` [Compound 123, 3-[2-[6-[(3R)-3-Amino-pyrrolidine-1-carbonyl]-spiro[1,2-dihydro-indole-3,1′-cyclopropane]-1-yl]-pyrimidin-5-yl]-4-fluoro-benzonitrile]: < 0.1 µM; for `CN(C)C(=O)c1ccc2c(c1)N(c1ncc(-c3ccccc3)cn1)CC21CC1` [Compound 124, N,N-Dimethyl-1-(5-phenyl-pyrimidin-2-yl)-spiro[1,2-dihydro-indole-3,1′-cyclopropane]-6-carboxylic acid amide]: < 0.1 µM.
The result for `CN(C)C(=O)c1ccc2c(c1)N(c1ncc(-c3cccc(F)c3)cn1)CC21CC1` [Compound 125, 1-[5-(3-Fluorophenyl)-pyrimidin-2-yl]-N,N-dimethyl-spiro[1,2-dihydro-indole-3,1′-cyclopropane]-6-carboxylic acid amide] reads < 0.1 µM; that for `CN(CCO)C(=O)c1ccc2c(c1)N(c1ncc(-c3cc(F)cc(F)c3)cn1)CC21CC1` [Compound 126, 1-[5-(3,5-Difluoro-phenyl)-pyrimidin-2-yl]-N-(2-hydroxy-ethyl)-N-methyl-spiro[1,2-dihydro-indole-3,1′-cyclopropane]-6-carboxylic acid amide], < 0.1 µM; that for `NC(=O)c1ccc2c(c1)N(c1ncc(-c3ccccc3F)cn1)CC21CC1` [Compound 127, 1-[5-(2-Fluorophenyl)-pyrimidin-2-yl]-spiro[1,2-dihydro-indole-3,1′-cyclopropane]-6-carboxylic acid amide], 0.1 to 1 µM.
As to `O=C1CN(C(=O)c2ccc3c(c2)N(c2ncc(-c4cc(F)cc(F)c4)cn2)CC32CC2)CCN1` [Compound 128, 4-[1-[5-(3,5-Difluoro-phenyl)-pyrimidin-2-yl]-spiro[1,2-dihydro-indole-3,1′-cyclopropane]-6-carbonyl]-piperazin-2-one], the IC50 is < 0.1 µM.
The result for `CN(CCO)C(=O)c1ccc2c(c1)N(c1ncc(-c3cccc(F)c3)cn1)CC21CC1` [Compound 129, 1-[5-(3-Fluorophenyl)-pyrimidin-2-yl]-N-(2-hydroxy-ethyl)-N-methyl-spiro[1,2-dihydro-indole-3,1′-cyclopropane]-6-carboxylic acid amide] reads < 0.1 µM; that for `O=C(c1ccc2c(c1)N(c1ncc(-c3cccc(F)c3)cn1)CC21CC1)N1CCCC1` [Compound 130, [1-[5-(3-Fluorophenyl)-pyrimidin-2-yl]-spiro[1,2-dihydro-indole-3,1′-cyclopropane]-6-yl]-pyrrolidin-1-yl-methanone], < 0.1 µM.
The same measure for `O=C(c1ccc2c(c1)N(c1ncc(-c3ccc(Cl)s3)cn1)CC21CC1)N1CCOCC1` [Compound 131, [1-[5-(5-Chloro-thiophen-2-yl)-pyrimidin-2-yl]-spiro[1,2-dihydro-indole-3,1′-cyclopropane]-6-yl]-morpholin-4-yl-methanone]: 0.1 to 1 µM; for `O=C(c1ccc2c(c1)N(c1ncc(-c3ccsc3Cl)cn1)CC21CC1)N1CCOCC1` [Compound 132, [1-[5-(2-Chloro-thiophen-3-yl)-pyrimidin-2-yl]-spiro[1,2-dihydro-indole-3,1′-cyclopropane]-6-yl]-morpholin-4-yl-methanone]: < 0.1 µM; for `O=C(c1ccc2c(c1)N(c1ncc(-c3sccc3Cl)cn1)CC21CC1)N1CCOCC1` [Compound 133, [1-[5-(3-Chloro-thiophen-2-yl)-pyrimidin-2-yl]-spiro[1,2-dihydro-indole-3,1′-cyclopropane]-6-yl]-morpholin-4-yl-methanone]: 0.1 to 1 µM.
The same measure for `Cn1nc(C(F)(F)F)cc1-c1cnc(N2CC3(CC3)c3ccc(C(=O)N4CCOCC4)cc32)nc1` [Compound 134, [1-[5-[2-Methyl-5-(trifluoromethyl)-2H-pyrazol-3-yl]-pyrimidin-2-yl]-spiro[1,2-dihydro-indole-3,1′-cyclopropane]-6-yl]-morpholin-4-yl-methanone]: 0.1 to 1 µM; for `Cc1noc(C)c1-c1cnc(N2CC3(CC3)c3ccc(C(=O)N4CCOCC4)cc32)nc1` [Compound 135, [1-[5-(3,5-Dimethyl-isoxazol-4-yl)-pyrimidin-2-yl]-spiro[1,2-di-hydro-indole-3,1′-cyclopropane]-6-yl]-morpholin-4-yl-methanone]: 0.1 to 1 µM.
Consider `Cn1ccc(-c2cnc(N3CC4(CC4)c4ccc(C(=O)N5CCOCC5)cc43)nc2)c1` [Compound 136, [1-[5-(1-Methyl-1H-pyrrol-3-yl)-pyrimidin-2-yl]-spiro[1,2-dihydro-indole-3,1′-cyclopropane]-6-yl]-morpholin-4-yl-methanone], for which the IC50 was < 0.1 µM.
The result for `Cn1ccc(-c2cnc(N3CC4(CC4)c4ccc(C(=O)N5CCOCC5)cc43)nc2)n1` [Compound 137, [1-[5-(1-Methyl-1H-pyrazol-3-yl)-pyrimidin-2-yl]-spiro[1,2-dihydro-indole-3,1′-cyclopropane]-6-yl]-morpholin-4-yl-methanone] reads < 0.1 µM; that for `Cn1cc(-c2cnc(N3CC4(CC4)c4ccc(C(=O)N5CCOCC5)cc43)nc2)cn1` [Compound 138, [1-[5-(1-Methyl-1H-pyrazol-4-yl)-pyrimidin-2-yl]-spiro[1,2-dihydro-indole-3,1′-cyclopropane]-6-yl]-morpholin-4-yl-methanone], < 0.1 µM; that for `COc1ccsc1-c1cnc(N2CC3(CC3)c3ccc(C(=O)N4CCOCC4)cc32)nc1` [Compound 139, [1-[5-(3-Methoxy-thiophen-2-yl)-pyrimidin-2-yl]-spiro[1,2-dihydro-indole-3,1′-cyclopropane]-6-yl]-morpholin-4-yl-methanone], < 0.1 µM.
The same measure for `O=C(c1ccc2c(c1)N(c1ncc(-c3cn[nH]c3C(F)(F)F)cn1)CC21CC1)N1CCOCC1` [Compound 140, Morpholin-4-yl-[1-[5-[5-(trifluoromethyl)-1H-pyrazol-4-yl]-pyrimidin-2-yl]-spiro[1,2-dihydro-indole-3,1′-cyclopropane]-6-yl]-methanone]: < 0.1 µM; for `Cn1cccc1-c1cnc(N2CC3(CC3)c3ccc(C(=O)N4CCOCC4)cc32)nc1` [Compound 141, [1-[5-(1-Methyl-1H-pyrrol-2-yl)-pyrimidin-2-yl]-spiro[1,2-dihydro-indole-3,1′-cyclopropane]-6-yl]-morpholin-4-yl-methaone]: < 0.1 µM; for `O=C(c1ccc2c(c1)N(c1ncc(-c3ccc(CO)o3)cn1)CC21CC1)N1CCOCC1` [Compound 142, [1-[5-[5-(Hydroxymethyl)-furan-2-yl]-pyrimidin-2-yl]-spiro[1,2-di-hydro-indole-3,1′-cyclopropane]-6-yl]-morpholin-4-yl-methanone]: < 0.1 µM.
In the case of `N#Cc1ccc(-c2cnc(N3CC4(CC4)c4ccc(C(=O)N5CCOCC5)cc43)nc2)s1` [Compound 143, 5-[2-(6-(Morpholine-4-carbonyl)-spiro[1,2-dihydro-indole-3,1′-cyclopropane]-1-yl]-pyrimidin-5-yl]-thiophene-2-carbonitrile], the half-inhibitory concentration (IC50) was < 0.1 µM.
The result for `Cc1n[nH]c(C)c1-c1cnc(N2CC3(CC3)c3ccc(C(=O)N4CCOCC4)cc32)nc1` [Compound 144, [1-[5-(3,5-Dimethyl-1H-pyraozl-4-yl)-pyrimidin-2-yl]-spiro[1,2-di-hydro-indole-3,1′-cyclopropane]-6-yl]-morpholin-4-yl-methanone] reads < 0.1 µM; that for `O=C(c1ccc2c(c1)N(c1ncc(-c3cccnc3F)cn1)CC21CC1)N1CCOCC1` [Compound 145, [1-[5-(2-Fluoro-pyridin-3-yl)-pyrimidin-2-yl]-spiro[1,2-dihydro-indole-3,1′-cyclopropane]-6-yl]-morpholin-4-yl-methanone], < 0.1 µM.
On to `O=C(c1ccc2c(c1)N(c1ncc(-c3ccncc3)cn1)CC21CC1)N1CCOCC1` [Compound 146, Morpholin-4-yl-[1-(5-pyridin-4-yl-pyrimidin-2-yl)-spiro[1,2-dihydro-indole-3,1′-cyclopropane]-6-yl]-methanone], for which the IC50 was < 0.1 µM.
As to `O=C(c1ccc2c(c1)N(c1ncc(-c3ccncc3F)cn1)CC21CC1)N1CCOCC1` [Compound 147, [1-[5-(3-Fluoro-pyridin-4-yl)-pyrimidin-2-yl]-spiro[1,2-dihydro-indole-3,1′-cyclopropane]-6-yl]-morpholin-4-yl-methanone], the IC50 is < 0.1 µM.
The same measure for `O=C(c1ccc2c(c1)N(c1ncc(-c3ccc(F)s3)cn1)CC21CC1)N1CCOCC1` [Compound 148, [1-[5-(5-Fluoro-thiophen-2-yl)-pyrimidin-2-yl]-spiro[1,2-dihydro-indole-3,1′-cyclopropane]-6-yl]-morpholin-4-yl-methanone]: < 0.1 µM.
